The text below walks through data of patent publication US20210238170A1, “5,5-Difluoro- and 5-Fluoro-5-Methyl-C-Glycoside Derivatives Useful As Dual SGLT1 / SGLT2 Modulators” (Janssen Pharmaceutica NV, priority 2018, published 2021).

pIC50: −log10 of the molar value. Like-named read-outs stand apart in the source and are kept apart here.

In one experiment the target is T1, human SGLT1 (Homo sapiens, UniProt P13866).
T1 construct: expressed in transfected cells
T1 sequence (P13866 1-664): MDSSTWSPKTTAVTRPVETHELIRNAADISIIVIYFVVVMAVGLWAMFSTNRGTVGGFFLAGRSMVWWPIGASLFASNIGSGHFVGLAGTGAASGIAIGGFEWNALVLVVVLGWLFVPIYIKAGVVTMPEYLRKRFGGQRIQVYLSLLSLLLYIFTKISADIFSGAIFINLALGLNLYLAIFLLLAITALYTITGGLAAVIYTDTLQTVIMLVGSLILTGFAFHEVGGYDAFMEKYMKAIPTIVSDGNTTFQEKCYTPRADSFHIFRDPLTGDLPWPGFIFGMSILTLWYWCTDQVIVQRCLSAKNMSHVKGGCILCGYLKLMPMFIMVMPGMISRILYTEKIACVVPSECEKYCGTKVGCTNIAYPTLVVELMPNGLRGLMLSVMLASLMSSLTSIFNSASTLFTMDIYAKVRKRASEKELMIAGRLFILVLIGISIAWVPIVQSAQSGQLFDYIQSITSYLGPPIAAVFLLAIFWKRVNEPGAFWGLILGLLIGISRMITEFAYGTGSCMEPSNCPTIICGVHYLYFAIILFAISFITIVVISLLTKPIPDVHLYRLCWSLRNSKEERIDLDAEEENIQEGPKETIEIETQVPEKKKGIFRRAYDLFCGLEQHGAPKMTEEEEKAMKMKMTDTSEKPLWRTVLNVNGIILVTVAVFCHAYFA
The experiment can be described thus: SGLT1 in vitro assay: Na-dependent 14C-AMG uptake in CHO-K1 cells stably expressing human SGLT1. Conditions: for inhibition at 0.3 µM: read-out: SGLT1 % Inh @ 0.3 μM. Type of experiment: cell-based. The method, then:
(§1) Biological Example 1: SGLT1 and SGLT2 In Vitro Assays
(§2) The ability of the compounds of formula (I) of the present invention to treat an SGLT-mediated condition was determined using the following procedures:
(§3) SGLT1 and SGLT2 were cloned in form of cDNA from human small intestine (Genbank M24847), and from human kidney (Genbank M95549), respectively. Subsequently, each full cDNA was subcloned into pcDNA with each construct's integrity verified through follow-on sequencing. To generate CHO-K1 cells that stably express human SGLT1 or human SGLT2, CHO-K1 cells were transfected using DMRIE-C reagent (Life Technologies, Gaithersburg, Md.). Transfected cells were then selected in the presence of 500 μg/ml of the Geneticin (G418 Cellgro Catalog No. 30234-CI)
(§4) Individual clones were then characterized using the following cell-based assay for sodium-dependent glucose transport:
(§5) Inhibition of SGLT1 and SGLT2 activity was assessed in CHO K1 cells stably expressing either human SGLT1 or SGLT2, using the SGLT specific glucose analog methyl-glucopyranoside (Sigma Catalog No. M-9376). Cells were plated (45,000 cells/well) in white wall 96-well plates (COSTAR, Cat #3903) for 24 hours in growth medium, then a final concentration of 10 mM Na-Butyrate (ALDRICH Cat #30341-0) was added. The cells were incubated for 24 hours. On the day of the assay, cells were rinsed and treated with test compounds (at concentrations of 0.001 μM to 10 μM) in assay buffer (50 mM HEPES, 20 mM Tris base, 5 mM KCl, 1 mM MgCl2, 1 mM CaCl2 and 137 mM NaCl, pH 7.4) for 10 minutes. Cells were then incubated with ^14C-a-methyl-d-glucopyranoside (AMG, Amersham Catalog No. CFB 76), using 0.07 μCi per well in 500 µM AMG final concentration. The cells were incubated for 2 hours at 37° C. with 5% CO2 and washed two times with ice-cold Phosphate Buffer Solution (CELLGRO Catalog No. 21030-CV). The cells were then solubilized by adding 60 μl of MICROSCINT™ 20 and the Na-dependent ^14C-AMG uptake was quantified by measuring radioactivity. Plates were counted in a TopCount (Packard, Meriden, Conn.)
(§6) Representative compounds of the present invention were tested according to the procedures as described in Biological Example 1 and 2 above, with results as listed in Table 5, below. Results are reported as the %-inhibition or IC50 value. Variability for the functional assay was typically within 20%.

The next experiment deals with T2, human SGLT2 (Homo sapiens, UniProt P31639).
T2 construct: expressed in transfected cells
T2 sequence (P31639 1-672): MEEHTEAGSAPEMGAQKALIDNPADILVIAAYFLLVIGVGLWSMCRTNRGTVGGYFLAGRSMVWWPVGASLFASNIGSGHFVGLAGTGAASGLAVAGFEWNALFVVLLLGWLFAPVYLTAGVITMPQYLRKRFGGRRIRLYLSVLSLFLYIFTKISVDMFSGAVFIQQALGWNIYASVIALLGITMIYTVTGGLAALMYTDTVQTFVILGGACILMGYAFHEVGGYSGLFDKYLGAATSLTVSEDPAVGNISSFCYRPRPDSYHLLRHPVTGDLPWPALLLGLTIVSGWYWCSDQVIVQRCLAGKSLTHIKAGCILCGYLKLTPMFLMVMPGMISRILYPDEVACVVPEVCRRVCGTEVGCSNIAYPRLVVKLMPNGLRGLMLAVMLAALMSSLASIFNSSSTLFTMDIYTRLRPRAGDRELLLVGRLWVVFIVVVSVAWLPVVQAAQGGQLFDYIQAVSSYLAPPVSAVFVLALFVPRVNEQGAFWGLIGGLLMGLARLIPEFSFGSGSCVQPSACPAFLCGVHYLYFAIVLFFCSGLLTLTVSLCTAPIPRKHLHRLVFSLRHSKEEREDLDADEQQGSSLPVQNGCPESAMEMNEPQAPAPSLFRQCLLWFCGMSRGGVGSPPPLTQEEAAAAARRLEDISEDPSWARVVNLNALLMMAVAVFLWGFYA
The experiment can be described thus: SGLT2 in vitro assay: Na-dependent 14C-AMG uptake in CHO-K1 cells stably expressing human SGLT2. Conditions: for inhibition at 0.3 µM: read-out: SGLT2 % Inh @ 0.3 μM. Type of experiment: cell-based. The method, then:
as §1, §2, §3, §4, §5, §6

The mark [1] stands for this setting: @ 0.3 μM, CHO-K1 cells stably expressing human SGLT1, 14C-AMG uptake.
The mark [2] stands for this setting: @ 0.3 μM, CHO-K1 cells stably expressing human SGLT2, 14C-AMG uptake.
The mark [3] stands for this setting: 0.3 μM, CHO-K1 cells expressing human SGLT1.
Setting [4] is: CHO-K1 cells expressing human SGLT1, 14C-AMG uptake.
Setting [5] is: 0.3 μM, CHO-K1 cells expressing human SGLT2.
Setting [6] is: CHO-K1 cells expressing human SGLT2, 14C-AMG uptake.
Setting [7] is: CHO-K1 cells stably expressing human SGLT1, 14C-AMG uptake, compounds of formula (I) where R0 is fluoro.
Setting [8] is: CHO-K1 cells stably expressing human SGLT2, 14C-AMG uptake, compounds of formula (I) where R0 is fluoro.

Usually pIC50 stands for the negative decadic logarithm of the IC50, by convention in mol/L. A lower pIC50 goes with a large IC50.

As to `CCc1ccc(Cc2cc(C3OC(CO)C(F)(F)C(O)C3O)cc3c2OCC3CO)cc1` (mixture of isomers) [Compound 61], at human SGLT1 (setting [1]), the “SGLT1 % Inh @ 0.3 μM” value was 32.2%. In addition, on human SGLT2 (setting [2]), the “SGLT2 % Inh @ 0.3 μM” value is 58.0%.
For `Cc1cc(O)c([C@@H]2O[C@H](CO)[C@@](C)(F)[C@H](O)[C@H]2O)cc1Cc1ccc(OCF)cc1` (stereo in doubt) [Compound 23, (2S,3R,4R,5S,6R)-5-fluoro-2-(5-(4-(fluoromethoxy)benzyl)-2-hydroxy-4-methylphenyl)-6-(hydroxymethyl)-5-methyl-tetrahydro-2H-pyran-3,4-diol], the inhibition at 0.3 µM was 54% at human SGLT1 (setting [3]) and 88% at human SGLT2 (setting [5]). Further, the pIC50 is 6.50 at human SGLT1 (setting [4]) and 8.55 against human SGLT2 (setting [6]).
Turning to `Cc1cc(O)c([C@@H]2O[C@H](CO)[C@@](C)(F)[C@H](O)[C@H]2O)cc1Cc1cc2ccccc2s1` [Compound 1], the inhibition at 0.3 µM at human SGLT1 (setting [3]) came to 57.6%. For the same compound, the negative logarithm of the IC50 (pIC50) is 6.70 at human SGLT1 (setting [4]) and 7.71 against human SGLT2 (setting [6]).
In the case of `COc1cc(O)c([C@@H]2O[C@H](CO)[C@@](C)(F)[C@H](O)[C@H]2O)cc1Cc1ccc2c(c1)CCCO2` [Compound 2, (2S,3R,4R,5S,6R)-2-[5-(chroman-6-ylmethyl)-2-hydroxy-4-methoxy-phenyl]-5-fluoro-6-(hydroxymethyl)-5-methyl-tetrahydropyran-3,4-diol], the inhibition at 0.3 µM was determined as 31.1% on human SGLT1 (setting [3]) and 67.4% at human SGLT2 (setting [5]).
Consider `COc1cc(OC)c(C2OC(CO)C(C)(F)C(O)C2O)cc1Cc1ccc2c(c1)CCCO2` (stereo not shown) [Compound 4], for which, at human SGLT1 (setting [3]), the “SGLT1 % Inh @ 0.3 μM” value was determined as 0.9%. Further, on human SGLT2 (setting [5]), the “SGLT2 % Inh @ 0.3 μM” value worked out at 73.4%.
`COc1cc(OC)c([C@@H]2O[C@H](CO)[C@@](C)(F)[C@H](O)[C@H]2O)cc1Cc1ccc2c(c1)OCCO2` [Compound 9, (2S,3R,4R,5S,6R)-2-[5-(2,3-dihydro-1,4-benzodioxin-6-ylmethyl)-2,4-dimethoxy-phenyl]-5-fluoro-6-(hydroxymethyl)-5-methyl-tetrahydropyran-3,4-diol]: the inhibition at 0.3 µM at human SGLT1 (setting [3]) came to 25.3%; at human SGLT2 (setting [5]) it was 58.7%.
For the compound `C[C@]1(F)[C@H](O)[C@@H](O)[C@H](c2cc(Cc3cc4ccccc4s3)c(Cl)cc2O)O[C@@H]1CO` [Compound 10, (2S,3R,4R,5S,6R)-2-[5-(benzothiophen-2-ylmethyl)-4-chloro-2-hydroxy-phenyl]-5-fluoro-6-(hydroxymethyl)-5-methyl-tetrahydropyran-3,4-diol], the inhibition at 0.3 µM at human SGLT1 (setting [3]) worked out at 41.7%; on human SGLT2 (setting [5]), 87.8%. Also, the pIC50 is 6.54 against human SGLT1 (setting [4]) and 7.99 at human SGLT2 (setting [6]).
With `CCc1cc(O)c([C@@H]2O[C@H](CO)[C@@](C)(F)[C@H](O)[C@H]2O)cc1Cc1ccc(OC)cc1` [Compound 16, (2S,3R,4R,5S,6R)-2-[4-ethyl-2-hydroxy-5-[(4-methoxyphenyl)methyl]phenyl]-5-fluoro-6-(hydroxymethyl)-5-methyl-tetrahydropyran-3,4-diol], the inhibition at 0.3 µM is 53% on human SGLT1 (setting [3]) and 85.5% on human SGLT2 (setting [5]). Further, the values for the negative logarithm of the IC50 (pIC50) on human SGLT1 (setting [4]) and against human SGLT2 (setting [6]) were 6.82 and 8.70, respectively.
As for `C[C@]1(F)[C@H](O)[C@@H](O)[C@H](c2cc3c(c(Cc4ccc5c(c4)OCCO5)c2)OCC3)O[C@@H]1CO` [Compound 19], the “SGLT1 % Inh @ 0.3 μM” value at human SGLT1 (setting [3]) is 9.3%. At human SGLT2 (setting [5]), the “SGLT2 % Inh @ 0.3 μM” value is on record as 73.5%.
For `COc1cc(C)c(Cc2ccc(OCF)cc2)cc1[C@@H]1O[C@H](CO)[C@@](C)(F)[C@H](O)[C@H]1O` [Compound 24] the same measures were 29.6% and 77.1%.
In the case of `CCc1cc(O)c([C@@H]2O[C@H](CO)C(F)(F)[C@H](O)[C@H]2O)cc1Cc1cc2ccccc2s1` [Compound 26, (2S,3R,4R,6R)-2-[5-(benzothiophen-2-ylmethyl)-4-ethyl-2-hydroxy-phenyl]-5,5-difluoro-6-(hydroxymethyl)tetrahydropyran-3,4-diol], the pIC50 against human SGLT1 (setting [7]) was 7.36; against human SGLT2 (setting [8]) it was 7.48.
As to `OC[C@H]1O[C@@H](c2cc(Cc3cc4ccccc4s3)c(Cl)cc2O)[C@H](O)[C@@H](O)C1(F)F` [Compound 27, (2S,3R,4R,6R)-2-[5-(benzothiophen-2-ylmethyl)-4-chloro-2-hydroxy-phenyl]-5,5-difluoro-6-(hydroxymethyl)tetrahydropyran-3,4-diol], on human SGLT1 (setting [1]), the inhibition at 0.3 µM came out at 71.3%. The pIC50 on human SGLT1 (setting [7]) is 7.03; against human SGLT2 (setting [8]), 8.38.
`COc1cc(O)c([C@@H]2O[C@H](CO)C(F)(F)[C@H](O)[C@H]2O)cc1Cc1cc2ccccc2s1` [Compound 31, (2S,3R,4R,6R)-2-[5-(benzothiophen-2-ylmethyl)-2-hydroxy-4-methoxy-phenyl]-5,5-difluoro-6-(hydroxymethyl)tetrahydropyran-3,4-diol]: the negative logarithm of the IC50 (pIC50) was 6.78 on human SGLT1 (setting [7]) and 7.62 against human SGLT2 (setting [8]).
On to `COc1cc(C)c(Cc2cc3ccccc3s2)cc1[C@@H]1O[C@H](CO)C(F)(F)[C@H](O)[C@H]1O` [Compound 35, (2S,3R,4R,6R)-2-[5-(benzothiophen-2-ylmethyl)-2-methoxy-4-methyl-phenyl]-5,5-difluoro-6-(hydroxymethyl)tetrahydropyran-3,4-diol], for which the inhibition at 0.3 µM on human SGLT1 (setting [1]) was 39.2%; at human SGLT2 (setting [2]), 76.3%.
Consider `COc1cc(Cl)c(Cc2cc3ccccc3s2)cc1[C@@H]1O[C@H](CO)C(F)(F)[C@H](O)[C@H]1O` [Compound 36, (2S,3R,4R,6R)-2-[5-(benzothiophen-2-ylmethyl)-4-chloro-2-methoxy-phenyl]-5,5-difluoro-6-(hydroxymethyl)tetrahydropyran-3,4-diol], for which the inhibition at 0.3 µM on human SGLT1 (setting [1]) was determined as 56.6%; on human SGLT2 (setting [2]), 48.6%. Besides, the pIC50 on human SGLT1 (setting [7]) was 6.66; against human SGLT2 (setting [8]) it was 8.37.
